Measured values from patent US20050113309A1, “Crystalline forms(2s)-n-5[amino(imino)methyl]-2-thienylmethyl-1-(2r)-2[(carboxymethyl) amino]-3,3-diphenylpropanoyl-2-pyrrolidinecarboxamide nh2o” (priority 2002, published 2005).
“Also recorded” adds a separate entry of the source.

Columns and labels:
[1] = Stress stability test (storage at −20° C., 50° C., 70° C. for 4 weeks); format: physicochemical; conditions: for Discoloration / change in appearance: 4 weeks' storage; for Color / Stability compared with the amorphous form: stress stability test; for Color: temperature not given (change in appearance at 70° C.)
Method: In order to compare physicochemical stability among the crystalline Form VI, the crystalline Form I, and the amorphous form prepared in Examples 7, 8, and Comparative Example 1, the stress stability test was conducted by placing their samples at the temperatures of −20° C., 50° C., and 70° C. for 4 weeks.

[2] = Powder X-ray diffraction during moisture absorption and dehumidification (crystal form stability to relative humidity); format: physicochemical; conditions: moisture absorption / relative humidity 33-93%
Method: 40 mg of the above crystalline Form I was thinly coated onto a sample holder. And, immediately after the sample was dried under vacuum in the presence of P2O5, and after the sample was placed for moisture absorption at each relative humidity of 33%, 53%, 64%, 75%, and 93% for two days or more, respectively, the powder X-ray diffraction test was conducted on the sample according to the conditions represented in above Test example 1 to observe change of the crystalline formi during moisture absorption. While lowering the relative humidity, the same test was repeated to observe change of the crystalline form during dehumidification.
In order to obtain each relative humidity above, as shown in the table below, saturated aqueous solutions of salts were prepared, then placed in a desiccator, and the desiccator was sealed.
40 mg of the above crystalline Form IV was thinly coated onto a sample holder. Immediately after the sample was dried under vacuum in the presence of P2O5, and after the sample was placed for moisture absorption at each relative humidity of 33%, 53%, 64%, 75%, and 93% for two days or more, respectively, the powder X-ray diffraction test of the sample was conducted according to the conditions represented in Test example 1 above to observe change of the crystalline form during moisture absorption. While lowering the relative humidity, the same test was repeated to observe change of the crystalline form during dehumidification.
In order to obtain each relative humidity above, as shown in Table 3 of Test example 2, saturated aqueous solutions of salts were prepared and then placed in a desiccator, and the desiccator was sealed.

SMILES | Residual rate after 4 weeks ([1]; 50° C., 4 weeks) [%] | Residual rate after 4 weeks ([1]; 50° C., 4 weeks, listed as amorphous form) [%] | Residual rate after 4 weeks ([1]; 70° C., 4 weeks) [%] | Discoloration / change in appearance ([1]; 70° C.) | Residual rate after 4 weeks ([1]; 70° C., 4 weeks, listed as amorphous form) [%] | Color ([1]; 4 weeks) | Change in appearance ([1]; −20° C. and 50° C., 4 weeks) | Residual rate after 4 weeks ([1]; −20° C., 4 weeks) [%] | Residual rate after 4 weeks ([1]; −20° C., 4 weeks, listed as amorphous form) [%] | Change of crystal structure / crystalline form with relative humidity [2] | Stability compared with the amorphous form ([1]; 4 weeks)
N=C(N)c1ccc(CNC(=O)[C@@H]2CCCN2C(=O)[C@H](NCC(=O)O)C(c2ccccc2)c2ccccc2)s1 [Amorphous form, (2S)-N-5-[amino(imino)methyl]-2-thienylmethyl-1-(2R)-2-[(carboxymethyl)amino]-3,3-diphenylpropanoyl-2-pyrrolidinecarboxamide] | 96 | 96 | 87 | discoloration; also recorded: change in appearance | 87 | Yellow | did not show any change in appearance | 96 | 96 |  | 
N=C(N)c1ccc(CNC(=O)[C@@H]2CCCN2C(=O)[C@H](NCC(=O)O)C(c2ccccc2)c2ccccc2)s1 [Form I, (2S)-N-5-[amino(imino)methyl]-2-thienylmethyl-1-(2R)-2-[(carboxymethyl)amino]-3,3-diphenylpropanoyl-2-pyrrolidinecarboxamide] | 99 |  | 100 | stable without discoloration |  | Ivory |  | 99 |  |  | remarkably superior stability over the amorphous form
N=C(N)c1ccc(CNC(=O)[C@@H]2CCCN2C(=O)[C@H](NCC(=O)O)C(c2ccccc2)c2ccccc2)s1 [Form II, (2S)-N-5-[amino(imino)methyl]-2-thienylmethyl-1-(2R)-2-[(carboxymethyl)amino]-3,3-diphenylpropanoyl-2-pyrrolidinecarboxamide] |  |  |  |  |  |  |  |  |  | changed to the crystalline Form III | 
N=C(N)c1ccc(CNC(=O)[C@@H]2CCCN2C(=O)[C@H](NCC(=O)O)C(c2ccccc2)c2ccccc2)s1 [Form VI, (2S)-N-5-[amino(imino)methyl]-2-thienylmethyl-1-(2R)-2-[(carboxymethyl)amino]-3,3-diphenylpropanoyl-2-pyrrolidinecarboxamide] | 99 |  | 100 |  |  | Ivory |  | 101 |  | crystal structure is not changed under any relative humidity | remarkably superior stability over the amorphous form

Second part, led by results:

Residual rate after 4 weeks ([1]; 50° C., 4 weeks) [%] | Residual rate after 4 weeks ([1]; 50° C., 4 weeks, listed as amorphous form) [%] | Residual rate after 4 weeks ([1]; 70° C., 4 weeks) [%] | Discoloration / change in appearance ([1]; 70° C.) | Residual rate after 4 weeks ([1]; 70° C., 4 weeks, listed as amorphous form) [%] | Color ([1]; 4 weeks) | Change in appearance ([1]; −20° C. and 50° C., 4 weeks) | Residual rate after 4 weeks ([1]; −20° C., 4 weeks) [%] | Residual rate after 4 weeks ([1]; −20° C., 4 weeks, listed as amorphous form) [%] | Change of crystal structure / crystalline form with relative humidity [2] | SMILES | Stability compared with the amorphous form ([1]; 4 weeks)
 |  |  | stable without discoloration |  |  |  |  |  |  | N=C(N)c1ccc(CNC(=O)[C@@H]2CCCN2C(=O)[C@H](NCC(=O)O)C(c2ccccc2)c2ccccc2)s1 [Form IV, (2S)-N-5-[amino(imino)methyl]-2-thienylmethyl-1-(2R)-2-[(carboxymethyl)amino]-3,3-diphenylpropanoyl-2-pyrrolidinecarboxamide] | 
 |  |  |  |  |  |  |  |  | changed into the crystalline Form VI | N=C(N)c1ccc(CNC(=O)[C@@H]2CCCN2C(=O)[C@H](NCC(=O)O)C(c2ccccc2)c2ccccc2)s1 [Form V, (2S)-N-5-[amino(imino)methyl]-2-thienylmethyl-1-(2R)-2-[(carboxymethyl)amino]-3,3-diphenylpropanoyl-2-pyrrolidinecarboxamide] | 
